Data taken from ChEMBL document CHEMBL5291721, “A preclinical secondary pharmacology resource illuminates target-adverse drug reaction associations of marketed drugs” (Nat Commun, 2023).

Legend:
[1] = biological target: T1, B2 bradykinin receptor (Homo sapiens, UniProt P30411)
T1 sequence (P30411 whole entry): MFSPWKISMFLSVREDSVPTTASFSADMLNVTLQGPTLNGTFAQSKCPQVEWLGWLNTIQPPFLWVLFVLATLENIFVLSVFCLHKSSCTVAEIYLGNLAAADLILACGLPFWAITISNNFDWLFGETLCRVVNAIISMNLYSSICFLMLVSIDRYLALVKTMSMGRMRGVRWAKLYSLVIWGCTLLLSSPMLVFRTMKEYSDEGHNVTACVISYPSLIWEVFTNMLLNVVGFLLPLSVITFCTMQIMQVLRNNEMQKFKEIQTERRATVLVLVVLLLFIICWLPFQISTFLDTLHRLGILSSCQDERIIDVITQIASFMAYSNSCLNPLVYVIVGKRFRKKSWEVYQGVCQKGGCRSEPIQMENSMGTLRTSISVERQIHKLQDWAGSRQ

[2] = biological target: T2, Prostaglandin G/H synthase 1 (Rattus norvegicus, UniProt Q63921); assay type: functional
T2 sequence (Q63921 whole entry): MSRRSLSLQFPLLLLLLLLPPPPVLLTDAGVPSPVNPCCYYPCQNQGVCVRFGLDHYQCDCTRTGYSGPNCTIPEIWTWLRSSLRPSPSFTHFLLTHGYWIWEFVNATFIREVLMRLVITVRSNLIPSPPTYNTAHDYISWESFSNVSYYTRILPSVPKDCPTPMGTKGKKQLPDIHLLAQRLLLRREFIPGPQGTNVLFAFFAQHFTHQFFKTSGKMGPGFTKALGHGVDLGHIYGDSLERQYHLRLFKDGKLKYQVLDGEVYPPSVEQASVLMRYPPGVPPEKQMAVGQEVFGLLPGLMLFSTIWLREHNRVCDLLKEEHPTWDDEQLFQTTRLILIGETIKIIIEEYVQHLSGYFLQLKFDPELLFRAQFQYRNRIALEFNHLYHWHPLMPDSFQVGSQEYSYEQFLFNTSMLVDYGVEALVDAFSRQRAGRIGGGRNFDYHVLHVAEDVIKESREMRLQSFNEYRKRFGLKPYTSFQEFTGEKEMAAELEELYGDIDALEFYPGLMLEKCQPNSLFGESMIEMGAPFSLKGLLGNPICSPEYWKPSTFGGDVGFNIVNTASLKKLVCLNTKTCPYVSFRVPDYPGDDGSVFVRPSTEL

[3] = biological target: T3, Alpha-1A adrenergic receptor (Homo sapiens, UniProt P35348); assay type: functional, cell-based
T3 sequence (P35348 whole entry): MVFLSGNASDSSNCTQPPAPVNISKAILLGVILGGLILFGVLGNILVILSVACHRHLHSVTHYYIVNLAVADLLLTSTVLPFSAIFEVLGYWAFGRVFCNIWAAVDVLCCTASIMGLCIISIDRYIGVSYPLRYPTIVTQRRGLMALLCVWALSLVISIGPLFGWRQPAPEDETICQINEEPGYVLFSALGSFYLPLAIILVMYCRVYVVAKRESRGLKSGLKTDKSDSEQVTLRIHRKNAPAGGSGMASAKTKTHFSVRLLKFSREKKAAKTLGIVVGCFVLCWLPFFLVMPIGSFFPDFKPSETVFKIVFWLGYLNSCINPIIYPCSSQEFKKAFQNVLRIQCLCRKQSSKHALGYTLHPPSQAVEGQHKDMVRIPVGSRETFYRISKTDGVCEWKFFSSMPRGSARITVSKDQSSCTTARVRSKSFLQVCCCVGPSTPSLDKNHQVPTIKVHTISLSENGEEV

[4] = biological target: Adenosine receptor A2a (Homo sapiens, UniProt P29274)
[5] = biological target: D(1A) dopamine receptor (Homo sapiens, UniProt P21728); assay type: functional, cell-based
[6] = biological target: Motilin receptor (Homo sapiens, UniProt O43193)
[7] = biological target: T4, Alpha-2C adrenergic receptor (Homo sapiens, UniProt P18825); assay type: functional
T4 sequence (P18825 whole entry): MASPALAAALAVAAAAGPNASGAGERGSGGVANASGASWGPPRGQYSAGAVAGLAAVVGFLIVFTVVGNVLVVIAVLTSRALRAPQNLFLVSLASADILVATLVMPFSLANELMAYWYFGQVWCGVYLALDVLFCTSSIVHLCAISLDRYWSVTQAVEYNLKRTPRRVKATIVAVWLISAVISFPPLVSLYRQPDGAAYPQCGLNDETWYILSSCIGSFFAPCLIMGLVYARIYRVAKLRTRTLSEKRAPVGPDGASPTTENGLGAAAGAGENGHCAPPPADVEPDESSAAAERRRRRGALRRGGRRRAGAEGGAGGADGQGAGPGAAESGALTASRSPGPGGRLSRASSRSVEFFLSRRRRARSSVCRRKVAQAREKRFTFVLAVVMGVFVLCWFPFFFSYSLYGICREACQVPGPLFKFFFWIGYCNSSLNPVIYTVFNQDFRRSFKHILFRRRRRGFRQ
Note: assay procedure not described here.

Sequence of Adenosine receptor A2a (P29274 whole entry): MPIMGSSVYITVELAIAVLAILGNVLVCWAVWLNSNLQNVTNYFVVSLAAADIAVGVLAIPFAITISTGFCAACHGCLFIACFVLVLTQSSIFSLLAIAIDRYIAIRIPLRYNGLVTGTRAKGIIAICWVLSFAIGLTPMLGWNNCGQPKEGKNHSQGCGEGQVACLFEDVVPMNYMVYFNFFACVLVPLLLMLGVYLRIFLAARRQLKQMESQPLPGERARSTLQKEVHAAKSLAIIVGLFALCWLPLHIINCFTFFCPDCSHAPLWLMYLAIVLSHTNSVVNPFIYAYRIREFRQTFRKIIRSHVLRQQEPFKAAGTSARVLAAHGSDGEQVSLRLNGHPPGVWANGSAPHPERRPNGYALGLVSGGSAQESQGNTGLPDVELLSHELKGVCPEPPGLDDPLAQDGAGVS
Sequence of D(1A) dopamine receptor (P21728 whole entry): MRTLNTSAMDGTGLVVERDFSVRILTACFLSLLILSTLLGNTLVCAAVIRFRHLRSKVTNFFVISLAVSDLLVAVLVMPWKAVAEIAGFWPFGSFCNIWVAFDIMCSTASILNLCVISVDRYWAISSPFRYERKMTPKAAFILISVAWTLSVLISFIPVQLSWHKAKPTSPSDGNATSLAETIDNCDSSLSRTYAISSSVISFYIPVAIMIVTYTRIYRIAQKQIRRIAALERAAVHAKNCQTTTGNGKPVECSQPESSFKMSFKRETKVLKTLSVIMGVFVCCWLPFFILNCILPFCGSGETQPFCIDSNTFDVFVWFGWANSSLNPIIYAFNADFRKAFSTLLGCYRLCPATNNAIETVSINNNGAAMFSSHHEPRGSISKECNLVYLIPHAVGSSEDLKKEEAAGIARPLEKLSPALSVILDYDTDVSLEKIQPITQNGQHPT
Sequence of Motilin receptor (O43193 whole entry): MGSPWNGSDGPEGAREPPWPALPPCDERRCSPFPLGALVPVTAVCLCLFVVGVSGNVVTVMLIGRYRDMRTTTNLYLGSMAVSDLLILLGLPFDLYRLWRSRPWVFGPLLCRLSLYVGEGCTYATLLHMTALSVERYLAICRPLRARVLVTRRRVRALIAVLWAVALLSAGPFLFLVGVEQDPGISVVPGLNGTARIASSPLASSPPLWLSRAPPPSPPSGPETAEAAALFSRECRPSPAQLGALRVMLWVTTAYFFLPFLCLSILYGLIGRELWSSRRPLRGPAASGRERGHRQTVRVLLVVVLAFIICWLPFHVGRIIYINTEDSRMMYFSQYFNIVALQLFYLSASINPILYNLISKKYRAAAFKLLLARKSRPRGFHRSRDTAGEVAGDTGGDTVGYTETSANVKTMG

O=C1C(O)=C([C@H]2CC[C@H](c3ccc(Cl)cc3)CC2)C(=O)c2ccccc21 [ATOVAQUONE]
AC50 [1]: > 30 µM | AC50 [2]: > 30 µM | AC50 [3]: > 30 µM | AC50 [4]: > 30 µM | AC50 [5]: > 30 µM | AC50 [6]: > 30 µM | AC50 [7]: > 30 µM

COc1ccc(CCNCC(O)COc2cccc(C)c2)cc1OC (centres undefined) [BEVANTOLOL]
AC50 [1]: > 10 µM | AC50 [2]: > 10 µM | AC50 [3]: 12 µM | AC50 [4]: > 10 µM | AC50 [5]: > 30 µM | AC50 [6]: > 10 µM | AC50 [7]: 9.4 µM

Brc1c(NC2=NCCN2)ccc2nccnc12 [BRIMONIDINE]
AC50 [1]: > 30 µM | AC50 [2]: > 30 µM | AC50 [4]: > 30 µM | AC50 [5]: > 30 µM | AC50 [6]: > 30 µM

CC(CC1c2ccccc2CCc2ccccc21)CN(C)C (centres undefined) [BUTRIPTYLINE]
AC50 [3]: 15 µM | AC50 [5]: > 30 µM | AC50 [7]: 6.9 µM

CC(C)(C)NCC(O)COc1cccc2c1CCC(=O)N2 (centres undefined) [CARTEOLOL]
AC50 [1]: > 10 µM | AC50 [2]: > 10 µM | AC50 [3]: > 30 µM | AC50 [4]: > 10 µM | AC50 [5]: > 10 µM | AC50 [6]: > 10 µM | AC50 [7]: > 10 µM

Nc1nc(Cl)nc2c1ncn2[C@H]1C[C@H](O)[C@@H](CO)O1 [CLADRIBINE]
AC50 [1]: > 30 µM | AC50 [2]: > 30 µM | AC50 [3]: > 30 µM | AC50 [4]: > 30 µM | AC50 [5]: > 30 µM | AC50 [6]: > 30 µM | AC50 [7]: > 30 µM

Clc1ccccc1C(c1ccccc1)(c1ccccc1)n1ccnc1 [CLOTRIMAZOLE]
AC50 [3]: > 30 µM

COc1ccc2c3c1O[C@H]1[C@@H](O)CC[C@H]4[C@@H](C2)N(C)CC[C@@]341 [DIHYDROCODEINE]
AC50 [3]: > 30 µM | AC50 [5]: > 30 µM | AC50 [7]: > 30 µM

NC(=O)OCC(COC(N)=O)c1ccccc1 [FELBAMATE]
AC50 [1]: > 10 µM | AC50 [2]: > 10 µM | AC50 [4]: > 10 µM | AC50 [5]: > 10 µM | AC50 [6]: > 10 µM | AC50 [7]: > 10 µM

Fc1ccc(C(c2ccccc2)(c2ccccc2F)n2ccnc2)cc1 (centres undefined) [FLUTRIMAZOLE]
AC50 [1]: > 30 µM | AC50 [2]: > 30 µM | AC50 [3]: > 30 µM | AC50 [4]: > 30 µM | AC50 [5]: > 30 µM | AC50 [6]: 27 µM | AC50 [7]: > 30 µM

Cc1c(OCC(F)(F)F)ccnc1C[S+]([O-])c1nc2ccccc2[nH]1 (centres undefined) [LANSOPRAZOLE]
AC50 [1]: > 30 µM | AC50 [2]: > 30 µM | AC50 [3]: > 30 µM | AC50 [4]: > 30 µM | AC50 [5]: > 10 µM | AC50 [6]: > 10 µM | AC50 [7]: > 10 µM

NC(=O)CN1CC(O)CC1=O (centres undefined) [OXIRACETAM]
AC50 [1]: > 30 µM | AC50 [2]: > 30 µM | AC50 [3]: > 30 µM | AC50 [4]: > 30 µM | AC50 [5]: > 30 µM | AC50 [6]: > 30 µM | AC50 [7]: > 30 µM

Cc1cc(C(C)(C)C)c(O)c(C)c1CC1=NCCN1 [OXYMETAZOLINE]
AC50 [2]: > 30 µM | AC50 [5]: > 30 µM

C[C@H]1COc2c(C3(N)CC3)c(F)cc3c(=O)c(C(=O)O)cn1c23 [PAZUFLOXACIN]
AC50 [1]: > 10 µM | AC50 [2]: > 30 µM | AC50 [4]: > 10 µM | AC50 [5]: > 10 µM | AC50 [6]: > 10 µM | AC50 [7]: > 10 µM

C[C@@H]1O[C@@H](O[C@@H]2C=C3CC[C@@H]4[C@H](CC[C@]5(C)[C@@H](c6ccc(=O)oc6)CC[C@]45O)[C@@]3(C)CC2)[C@H](O)[C@H](O)[C@H]1O [PROSCILLARIDIN]
AC50 [1]: > 30 µM | AC50 [2]: 13 µM | AC50 [3]: > 30 µM | AC50 [4]: > 30 µM | AC50 [5]: > 30 µM | AC50 [6]: > 30 µM | AC50 [7]: > 30 µM

CC/C(=C(\c1ccccc1)c1ccc(OCCN(C)C)cc1)c1ccccc1 [TAMOXIFEN]
AC50 [3]: > 30 µM | AC50 [7]: > 10 µM

C#C[C@]1(O)CC[C@H]2[C@@H]3[C@H](C)CC4=C(CCC(=O)C4)[C@H]3CC[C@@]21C [TIBOLONE]
AC50 [1]: > 30 µM | AC50 [2]: 4.5 µM | AC50 [3]: > 30 µM | AC50 [4]: > 30 µM | AC50 [5]: > 30 µM | AC50 [6]: > 30 µM | AC50 [7]: > 30 µM

COc1cccc(C2(O)CCCCC2CN(C)C)c1 (centres undefined) [TRAMADOL]
AC50 [1]: > 30 µM | AC50 [2]: > 30 µM | AC50 [3]: > 30 µM | AC50 [4]: > 30 µM | AC50 [5]: > 10 µM | AC50 [6]: > 10 µM | AC50 [7]: > 10 µM

Cc1nnc2n1-c1ccc(Cl)cc1C(c1ccccc1Cl)=NC2 [TRIAZOLAM]
AC50 [1]: > 30 µM | AC50 [2]: > 30 µM | AC50 [3]: > 30 µM | AC50 [4]: > 30 µM | AC50 [5]: > 10 µM | AC50 [6]: > 10 µM | AC50 [7]: > 10 µM

CC1(C)CCC(CN2CCN(c3ccc(C(=O)NS(=O)(=O)c4ccc(NCC5CCOCC5)c([N+](=O)[O-])c4)c(Oc4cnc5[nH]ccc5c4)c3)CC2)=C(c2ccc(Cl)cc2)C1 [VENETOCLAX]
AC50 [2]: > 30 µM | AC50 [5]: > 30 µM | AC50 [7]: 17 µM

THIMEROSAL
AC50 [5]: > 100 µM
